Values of other authors, collected in patent publication US8981059B2, “Platelet aggregation inducing substance” (JNC Corporation, priority 2006, dated 2015).

Test system: platelets
Details: as disclosed in the non-patent documents

-(Gly-Pro-Hyp)10- [polypeptide -(Gly-Pro-Hyp)10-]
platelet aggregation inducing activity: low
